Results on one compound are retold here after ChEMBL document CHEMBL1275484, “Rifampin and rifaximin resistance in clinical isolates of Clostridium difficile” (Antimicrob Agents Chemother, 2008).

SMILES strings stand for the structures.

Data set [1] in a line: Drug level in diarrhea patient feces at 400 mg, po every 12 hrs for 3 days. The note with it: human, read-out: Drug uptake. It is filed as ADME, organism-based.
Data set [2] has as its system Clostridioides difficile. Briefly: Antimicrobial activity against Clostridium difficile clinical isolate obtained from patient after completion of two courses of drug treatment. It is filed as functional.

One may read the MIC as the smallest concentration in the dilution series that meets the test's criterion for growth inhibition. Low values mean greater potency, high ones weaker potency. Turning to `CO[C@H]1/C=C/O[C@@]2(C)Oc3c(C)c(O)c4c(O)c(c5c(nc6cc(C)ccn65)c4c3C2=O)NC(=O)/C(C)=C\C=C\[C@H](C)[C@H](O)[C@@H](C)[C@@H](O)[C@@H](C)[C@H](OC(C)=O)[C@@H]1C` [RIFAXIMIN], the concentration at 3 days in data set [1] is 8e+06 ng/g. This compound also registered an MIC in data set [2] above 256 µg/mL.
